From patent US8785457B2 (Cellzome Limited, priority 2009, dated 2014)

Tests used:
PI3 Kbeta (PI3 Kb) = target: T1, PI3 Kbeta (PI3 Kb) (Homo sapiens, UniProt P42338); test: kinobeads assay, PI3Kbeta; format: binding; settings: kinobeads assay, Table 6; read-out: Inhibition values (IC50) PI3Kb
T1 construct: endogenous in cells; host or cells: cell lysate
Procedure, shortened: (§1)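 Competitive binding in cell lysate: test compounds at various concentrations compete with beads carrying an immobilized phenylmorpholin-chromen ligand. Bead-captured kinases are eluted and quantified by multiplexed immunodetection. IC50 values come from dose-response curves for each kinase.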

[1] = tested on: S6RP serine-240/244 phosphorylation; test: In vitro Phospho-S6 cellular assay (pS6RP S240/244) in HEK293T/17 cells; format: cell-based; settings: Homo sapiens, 2 hours, read-out: pS6 IC50
Procedure, shortened: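 HEK293T/17 cells were seeded at 40,000 (pS6RP) or 80,000 (pAkt) cells/well in DMEM with 2% FCS. They were exposed to 8 compound concentrations (0.1% DMSO) for 2 h at 37 °C and then lysed. Phosphoprotein was quantified by MesoScale electrochemiluminescence sandwich immunoassay, and the sigmoidal variable-slope dose-response was fitted.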

PI3 Kgamma (PI3 Kg) = target: T2, PI3 Kgamma (PI3 Kg) (Homo sapiens, UniProt P48736); test: kinobeads assay, PI3Kgamma; format: binding; settings: kinobeads assay, Table 6; read-out: Inhibition values (IC50) PI3Kg
T2 construct: endogenous in cells; host or cells: cell lysate
T2 sequence (P48736 whole entry): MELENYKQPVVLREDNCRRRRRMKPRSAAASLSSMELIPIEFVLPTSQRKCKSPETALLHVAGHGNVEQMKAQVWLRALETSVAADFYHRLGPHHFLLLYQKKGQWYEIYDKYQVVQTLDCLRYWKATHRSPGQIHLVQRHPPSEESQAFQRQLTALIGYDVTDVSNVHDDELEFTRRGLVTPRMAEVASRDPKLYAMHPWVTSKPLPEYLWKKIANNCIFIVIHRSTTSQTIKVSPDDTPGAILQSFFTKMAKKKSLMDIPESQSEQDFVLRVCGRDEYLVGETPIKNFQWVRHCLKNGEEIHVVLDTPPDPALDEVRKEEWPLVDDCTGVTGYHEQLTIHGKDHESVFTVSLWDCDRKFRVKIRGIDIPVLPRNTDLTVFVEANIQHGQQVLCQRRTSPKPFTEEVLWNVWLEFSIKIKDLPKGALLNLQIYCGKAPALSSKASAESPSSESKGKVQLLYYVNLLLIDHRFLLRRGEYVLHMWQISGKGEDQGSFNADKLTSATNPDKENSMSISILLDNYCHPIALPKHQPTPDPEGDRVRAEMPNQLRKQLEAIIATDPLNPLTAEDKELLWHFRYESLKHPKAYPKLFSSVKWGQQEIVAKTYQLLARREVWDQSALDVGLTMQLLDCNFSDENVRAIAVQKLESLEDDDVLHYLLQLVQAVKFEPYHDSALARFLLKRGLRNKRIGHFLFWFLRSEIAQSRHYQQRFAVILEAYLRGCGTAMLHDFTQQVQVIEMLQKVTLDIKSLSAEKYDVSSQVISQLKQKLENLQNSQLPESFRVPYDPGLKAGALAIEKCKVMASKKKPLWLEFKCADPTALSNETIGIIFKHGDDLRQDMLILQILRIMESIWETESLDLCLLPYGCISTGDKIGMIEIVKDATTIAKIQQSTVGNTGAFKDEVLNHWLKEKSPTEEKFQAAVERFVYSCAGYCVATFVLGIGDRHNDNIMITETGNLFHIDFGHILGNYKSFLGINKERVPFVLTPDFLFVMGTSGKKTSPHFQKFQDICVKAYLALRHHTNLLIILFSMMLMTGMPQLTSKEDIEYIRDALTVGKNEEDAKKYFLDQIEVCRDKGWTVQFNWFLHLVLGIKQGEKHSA
Procedure, shortened: as §1

[2] = tested on: Akt serine-473 phosphorylation; test: In vitro Phospho-Akt cellular assay (pAkt S473) in HEK293T/17 cells; format: cell-based; settings: Homo sapiens, 2 hours
Excerpt: Activation of mTOR signaling results in phosphorylation of several downstream targets. In cells, mTOR exists in two different protein complexes. The mTOR Complex-1 (mTORC1) phosphorylates and activates S6 Kinase 1 (S6K1) and S6 Kinase 2 (S6K2) (also known as p70S6K) which then phosphorylate S6 Ribosomal Protein (S6RP) (also known as RPS6)3. S6RP is phosphorylated on serine 235, serine 236, serine 240 and serine 244 by both pS6K1 and pS6K2. The mTOR Complex-2 (mTORC2) phosphorylates AKT on serine 473 which activates the AKT signaling pathway.
The assay measures a test compound's inhibition of S6RP serine-240/244 phosphorylation and inhibition of Akt serine-473 phosphorylation in human embryonic kidney derived HEK293T/17 cells (ATCC CRL-11268).
The HEK293T/17 cell line is maintained in DMEM media (Invitrogen catalogue number 41965-039) supplemented with 10% FCS at 37° C. in a 5% CO2 humidified incubator.
Cells are seeded in 96-well plates at 40,000 cells/well (pS6RP S240/244 assay) or 80,000 cells/well (pAkt S473 assay) in 90 μl growth media (DMEM, 2% FCS). Plates are incubated for 1 hour in a humidified incubator to allow the cells to adhere. Cells are treated with 8 concentrations of test compounds or DMSO alone for controls (final DMSO concentration 0.1%) and incubated at 37° C. for 2 hours. Then 20 μl of 5× concentrated lysis buffer (750 mM NaCl, 100 mM Tris pH7.4, 5 mM ADTA, 5 mM EGTA, 5% Triton X-100) is added, plates are sealed and incubated for 15 minutes at 4° C. with gentle shaking. After cell lysis, 25 μl cell lysate is transferred to a MesoScale plate coated with an antibody to pS6RP Ser240/244 (MesoScale Discovery K150DGD-3) or an antibody to pAkt Ser 473 (MesoScale Discovery K151DGD-3). Plates have been blocked before by incubation with 150 μl MesoScale Discovery Blocking Solution-A for 1 hour at room temperature followed by washing with 150 μl 1× Tris wash buffer per well. After the transfer of the cell lysate to the MSD plate, the pS6RP (or pAkt) protein is captured on the coated antibody by incubation at room temperature for 1 hour with gentle shaking. After the capture step the plate is washed three times with 150 μl of 1× Tris wash buffer per well. Then 25 μl detection antibody conjugated with a Sulfo-Tag is added and incubated for 1 hour at room temperature with gentle shaking. Subsequently the antibody solution is removed and the plate is washed 3 times with 150 μl×Tris wash buffer per well and 150 μl Read buffer is added. The plates are analysed on a MSD 2400 Plate Reader (MesoScale Discovery). Data analysis is performed using nonlinear regression for a sigmoidal dose-response with a variable slope.

T1 sequence (P42338 whole entry): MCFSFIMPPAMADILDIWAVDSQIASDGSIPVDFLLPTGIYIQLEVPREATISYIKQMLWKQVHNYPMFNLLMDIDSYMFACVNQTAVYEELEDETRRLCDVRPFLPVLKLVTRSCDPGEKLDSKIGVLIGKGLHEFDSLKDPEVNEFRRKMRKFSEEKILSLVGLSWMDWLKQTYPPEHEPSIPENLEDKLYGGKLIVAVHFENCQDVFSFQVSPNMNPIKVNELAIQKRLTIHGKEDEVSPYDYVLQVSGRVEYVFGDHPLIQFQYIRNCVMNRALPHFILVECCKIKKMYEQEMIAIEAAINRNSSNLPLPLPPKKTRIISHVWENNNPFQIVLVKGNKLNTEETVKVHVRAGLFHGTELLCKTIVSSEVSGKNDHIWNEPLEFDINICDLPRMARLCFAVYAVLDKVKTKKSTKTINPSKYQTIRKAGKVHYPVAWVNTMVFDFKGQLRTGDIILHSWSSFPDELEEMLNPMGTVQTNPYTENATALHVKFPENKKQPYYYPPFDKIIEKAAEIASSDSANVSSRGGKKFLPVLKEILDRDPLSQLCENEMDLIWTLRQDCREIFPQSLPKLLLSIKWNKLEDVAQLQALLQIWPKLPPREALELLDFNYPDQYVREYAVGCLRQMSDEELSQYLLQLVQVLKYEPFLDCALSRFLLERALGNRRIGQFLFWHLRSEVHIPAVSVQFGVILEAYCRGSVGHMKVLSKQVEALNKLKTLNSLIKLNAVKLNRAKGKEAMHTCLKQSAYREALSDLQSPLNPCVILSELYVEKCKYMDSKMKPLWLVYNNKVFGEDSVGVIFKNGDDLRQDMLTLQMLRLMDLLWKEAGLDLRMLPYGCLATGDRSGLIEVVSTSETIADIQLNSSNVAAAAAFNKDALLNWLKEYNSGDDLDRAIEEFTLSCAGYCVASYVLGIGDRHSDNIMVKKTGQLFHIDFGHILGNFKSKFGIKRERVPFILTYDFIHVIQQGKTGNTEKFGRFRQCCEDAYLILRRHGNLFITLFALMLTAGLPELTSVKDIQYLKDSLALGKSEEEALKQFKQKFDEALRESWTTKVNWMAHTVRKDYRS
T1 sequence (P27986 whole entry partner): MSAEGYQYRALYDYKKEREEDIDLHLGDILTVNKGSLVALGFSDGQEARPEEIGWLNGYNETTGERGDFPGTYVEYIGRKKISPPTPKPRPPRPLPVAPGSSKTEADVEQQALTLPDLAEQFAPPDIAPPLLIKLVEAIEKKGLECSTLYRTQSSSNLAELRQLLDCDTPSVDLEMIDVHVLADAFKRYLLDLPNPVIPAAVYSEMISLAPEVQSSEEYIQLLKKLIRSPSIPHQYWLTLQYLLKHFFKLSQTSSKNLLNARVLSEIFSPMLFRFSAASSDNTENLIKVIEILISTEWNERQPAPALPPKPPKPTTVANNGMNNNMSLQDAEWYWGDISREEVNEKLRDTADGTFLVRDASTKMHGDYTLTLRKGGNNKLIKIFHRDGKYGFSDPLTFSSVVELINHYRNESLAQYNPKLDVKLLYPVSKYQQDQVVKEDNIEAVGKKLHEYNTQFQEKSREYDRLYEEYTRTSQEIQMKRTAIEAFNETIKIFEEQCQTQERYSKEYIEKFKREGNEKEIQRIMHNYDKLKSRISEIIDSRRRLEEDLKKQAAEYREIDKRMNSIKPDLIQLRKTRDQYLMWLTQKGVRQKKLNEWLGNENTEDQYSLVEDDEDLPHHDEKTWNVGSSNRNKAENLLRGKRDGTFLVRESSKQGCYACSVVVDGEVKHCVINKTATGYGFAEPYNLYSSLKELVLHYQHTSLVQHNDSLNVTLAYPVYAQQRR

Row | Compound | IC50 (PI3 Kbeta (PI3 Kb)) [nM] | IC50 [1] [nM] | IC50 (PI3 Kgamma (PI3 Kg)) [nM] | IC50 [2] [nM]
1 | CCNC(=O)Nc1ccc(-c2nc3c(c(N4CCOC[C@@H]4C)n2)CCN(C(=O)C(C)(C)C)C3)cc1 [Example 58, (S)-1-ethyl-3-(4-(4-(3-methylmorpholino)-7-pivaloyl-5,6,7,8-tetrahydropyrido[3,4-d]pyrimidin-2-yl)phenyl)urea] | > 10000 | 34 | > 10000 | 17
2 | CCNC(=O)Nc1ccc(-c2nc3c(c(N4CCOC[C@@H]4C)n2)CN(C)C3)cc1F [Example 85, (S)-1-ethyl-3-(2-fluoro-4-(6-methyl-4-(3-methylmorpholino)-6,7-dihydro-5H-pyrrolo[3,4-d]pyrimidin-2-yl)phenyl)urea] | > 10000 | 873 | > 10000 | 531
3 | C[C@H]1COCCN1c1nc(-c2ccc(NC(=O)Nc3cccc(O)n3)cc2)nc2c1CN(C)C2 [Example 80, (S)-1-(6-hydroxypyridin-2-yl)-3-(4-(6-methyl-4-(3-methylmorpholino)-6,7-dihydro-5H-pyrrolo[3,4-d]pyrimidin-2-yl)phenyl)urea] | 1000 to 10000 | 89 | 1000 to 10000 | 61
4 | COC(=O)N1Cc2nc(-c3ccc(NC(=O)NC4CC4)cc3)nc(N3CCOC[C@@H]3C)c2C1 [Example 86, (S)-methyl 2-(4-(3-cyclopropylureido)phenyl)-4-(3-methylmorpholino)-5H-pyrrolo[3,4-d]pyrimidine-6(7H)-carboxylate] | > 10000 | 99 | > 10000 | 43
5 | CCNC(=O)Nc1ccc(-c2nc3c(c(N4CCOC[C@@H]4C)n2)CN(C(=O)OC)C3)cc1 [Example 89, (S)-methyl 2-(4-(3-ethylureido)phenyl)-4-(3-methylmorpholino)-5H-pyrrolo[3,4-d]pyrimidine-6(7H)-carboxylate] | > 10000 | 82 | > 10000 | 42
6 | CC(C)C(=O)N1CCc2c(nc(-c3ccc(NC(=O)NC4CC4)cc3)nc2N2CCOC[C@@H]2C)C1 [Example 61, (S)-1-cyclopropyl-3-(4-(7-isobutyryl-4-(3-methylmorpholino)-5,6,7,8-tetrahydropyrido[3,4-d]pyrimidin-2-yl)phenyl)urea] | > 10000 | 22 | > 10000 | 20
7 | CCNC(=O)Nc1ccc(-c2nc3c(c(N4CCOC[C@@H]4C)n2)CN(C(=O)OCC)C3)c(F)c1 [Example 113, (S)-ethyl-2-(4-(3-ethylureido)-2-fluorophenyl)-4-(3-methylmorpholino)-5H-pyrrolo[3,4-d]pyrimidine-6(7H)-carboxylate] | > 10000 | 77 | > 10000 | 53
8 | CCNC(=O)Nc1ccc(-c2nc3c(c(N4CCOC[C@@H]4C)n2)CCN(C(=O)Cc2cccnc2)C3)cc1 [Example 91, (S)-1-ethyl-3-(4-(4-(3-methylmorpholino)-7-(2-(pyridin-3-yl)acetyl)-5,6,7,8-tetrahydropyrido[3,4-d]pyrimidin-2-yl)phenyl)urea] | > 10000 | 105 | > 10000 | 87
9 | C[C@H]1COCCN1c1nc(-c2ccc(NC(=O)NC3CC3)cc2)nc2c1CCN(C(=O)C(C)(C)C)C2 [Example 64, (S)-1-cyclopropyl-3-(4-(4-(3-methylmorpholino)-7-pivaloyl-5,6,7,8-tetrahydropyrido[3,4-d]pyrimidin-2-yl)phenyl)urea] | > 10000 | 30 | > 10000 | 17
10 | CCNC(=O)N1CCc2c(nc(-c3ccc(NC(=O)NC4CC4)cc3)nc2N2CCOC[C@@H]2C)C1 [Example 88, (S)-2-(4-(3-cyclopropylureido)phenyl)-N-ethyl-4-(3-methylmorpholino)-5,6-dihydropyrido[3,4-d]pyrimidine-7(8H)-carboxamide] | > 10000 | 83 | > 10000 | 57
11 | CCOC(=O)N1Cc2nc(-c3ccc(NC(=O)NCCO)c(F)c3)nc(N3CCOC[C@@H]3C)c2C1 [Example 104, (S)-ethyl-2-(3-fluoro-4-(3-(2-hydroxyethyl)ureido)phenyl)-4-(3-methylmorpholino)-5H-pyrrolo[3,4-d]pyrimidine-6(7H)-carboxylate] | > 10000 | 390 | > 10000 | 
12 | CCNC(=O)Nc1ccc(-c2nc3c(c(N4CCOC[C@@H]4C)n2)CN(C(=O)OCC)C3)cc1F [Example 103, (S)-ethyl-2-(4-(3-ethylureido)-3-fluorophenyl)-4-(3-methylmorpholino)-5H-pyrrolo[3,4-d]pyrimidine-6(7H)-carboxylate] | > 10000 | 207 | > 10000 | 88
13 | CCNC(=O)Nc1ccc(-c2nc3c(c(N4CCOCC4)n2)CN(C)C3)cc1 [Example 69, 1-Ethyl-3-(4-(6-methyl-4-morpholino-6,7-dihydro-5H-pyrrolo[3,4-d]pyrimidin-2-yl)phenyl)urea] | 1000 to 10000 | 208 | > 10000 | 

More lines, now with the values ahead:

Row | IC50 (PI3 Kbeta (PI3 Kb)) [nM] | IC50 [1] [nM] | IC50 (PI3 Kgamma (PI3 Kg)) [nM] | IC50 [2] [nM] | Compound
14 | > 10000 | 37 | > 10000 | 21 | C[C@H]1COCCN1c1nc(-c2ccc(NC(=O)NC3CC3)cc2)nc2c1CCN(C(=O)C1CC1)C2 [Example 60, (S)-1-(4-(7-(cyclopropanecarbonyl)-4-(3-methylmorpholino)-5,6,7,8-tetrahydropyrido[3,4-d]pyrimidin-2-yl)phenyl)-3-cyclopropylurea]
15 | > 10000 | 38 | > 10000 | 28 | CCNC(=O)Nc1ccc(-c2nc3c(c(N4CCOC[C@@H]4C)n2)CCN(C(=O)OCC)C3)cc1 [Example 77, (S)-ethyl 2-(4-(3-ethylureido)phenyl)-4-(3-methylmorpholino)-5,6-dihydropyrido[3,4-d]pyrimidine-7(8H)-carboxylate]
16 | > 10000 | 47 | > 10000 | 22 | CCNC(=O)Nc1ccc(-c2nc3c(c(N4CCOC[C@@H]4C)n2)CCN(C(=O)OC)C3)cc1 [Example 81, (S)-methyl 2-(4-(3-ethylureido)phenyl)-4-(3-methylmorpholino)-5,6-dihydropyrido[3,4-d]pyrimidine-7(8H)-carboxylate]
17 | > 10000 | 108 | > 10000 | 91 | CCNC(=O)Nc1ccc(-c2nc3c(c(N4CCOC[C@@H]4C)n2)CCN(C(=O)NCC)C3)cc1 [Example 87, (S)—N-ethyl-2-(4-(3-ethylureido)phenyl)-4-(3-methylmorpholino)-5,6-dihydropyrido[3,4-d]pyrimidine-7(8H)-carboxamide]
18 | 1000 to 10000 | 425 | > 10000 |  | C[C@H]1COCCN1c1nc(-c2ccc(NC(=O)NCCO)cc2)nc2c1CN(C)C2 [Example 73, (S)-1-(2-hydroxyethyl)-3-(4-(6-methyl-4-(3-methylmorpholino)-6,7-dihydro-5H-pyrrolo[3,4-d]pyrimidin-2-yl)phenyl)urea]
19 | > 10000 | 25 | > 10000 |  | CCOC(=O)N1Cc2nc(-c3ccc(NC(=O)NCCF)cc3)nc(N3CCOC[C@@H]3C)c2C1 [Example 120, (S)-ethyl 2-(4-(3-(2-fluoroethyl)ureido)phenyl)-4-(3-methylmorpholino)-5H-pyrrolo[3,4-d]pyrimidine-6(7H)-carboxylate]
